One assay concerns HT-29 cells. Briefly: KLF4 mRNA (RT-PCR) in HT-29 cells. The assay is classed as cell-based, human. The settings on record: for KLF4 mRNA levels: HT-29; for effect of T007 on induction of KLF4 mRNA: HT-29, cotreatment with T007. How it is done: SW480 and HT29 colon cancer cells were treated either with vehicle (DMSO) or indicated compounds and after 24 hr total RNA was extracted using RNeasy Mini kit (Qiagen, Inc., Valencia, Calif.). RNA concentration was measured by UV 260:280 nm absorption ratio and 2 μg RNA was used to synthesize cDNA using Reverse Transcription System (Promega). PCR conditions were as follows: initial denaturation at 94° C. (1 min) followed by 28 cycles of denaturation for 30 s at 94° C., annealing for 60 s at 55° C. and extension at 72° C. for 60 s and a final extension step at 72° C. for 5 min. The mRNA levels were normalized using GAPDH as an internal housekeeping gene. Primers obtained from IDT and used for amplification are as follows: KLF4 (sense 5′-CTATGGCAGGGAGTCCGCTCC-3′ (SEQ ID NO: 1); antisense 5′-ATGACCGACGGGCTGCCGTAC-3′ (SEQ ID NO: 2)) and GAPDH (sense 5′-ACGGATTTGGTCGTATTGGGCG-3′ (SEQ ID NO: 3); antisense 5′-CTCCTGGAAGATGGTGATGG-3′ (SEQ ID NO: 4). PCR products were electrophoresed on 1% agarose gels containing ethidium bromide and visualized under UV transillumination.

A further assay has as its system Panc-28 cells. Briefly: Western blot of p21, p27, cyclin D1 in Panc-28 cells. The assay is classed as cell-based, human. The settings on record: for effect of T007 on induction of p21 protein: 5 μM compound plus 10 μM T007; for cyclin D1 expression / p27 expression: Panc-28; for p21 protein expression: Panc-28, 24 hr. Here is the method: (§1) SW480, HT-29, HCT-15 and Panc-28 (3×10^5) colon cancer cells were seeded in 6-well tissue culture plates in DMEM/Ham's F-12 medium containing 2.5% charcoal-stripped FBS. Protein is extracted from the cells treated either with vehicle or indicated compounds suspended for 24 hr except for caveolin-1 protein which was done for 72 hr. Samples were extracted in high salt buffer [50 mmol/L HEPES, 500 mmol/L NaCl, 1.5 mmol/L MgCl2, 1 mmol/L EGTA, 10% glycerol, and 1% Triton X-100 (pH 7.5), and 5 μL/mL protease inhibitor cocktail (Sigma-Aldrich)]. Samples were incubated at 100° C. for 2 min, separated on either 10% or 12% SDS-PAGE gels and then transferred to polyvinylidene difluoride membrane (PVDF; Bio-Rad, Hercules, Calif.). The PVDF membrane was blocked in 5% TBST-Blotto (10 mM Tris HCl, 150 mM NaCl, pH 8.0, 0.05% Triton X-100, and 5% nonfat dry milk) for about 30 min and was then incubated in fresh 5% TBST-Blotto with 1:1000 for caveolin-1 (Santa Cruz Biotechnology, Santa Cruz, Calif.), 1:1000 for p21 (BD Pharmingen, Frank lakes, NJ) and 1:10000 for β-actin (Sigma) primary antibody overnight with gentle shaking at 4° C. After washing with TBST for 10 min, the membrane was incubated with respective secondary antibody (1:5000) (Santa cruz, Calif.) in 5% TBST-Blotto for 3 hr. The membrane is then washed with TBST for 10 min, incubated with chemiluminiscence reagent from Perkin Elmer for one min and then exposed to Kodak X-OMAT AR autoradiography film (Eastman Kodak, Rochester, N.Y.).
(Immunoblotting shows a protein as a band on a membrane.)

Assay [1] has as its system SW480 cells. As to the kind of experiment: Caveolin-1 expression (Western blot) in SW480 cells. The assay is classed as cell-based, human. The settings on record: SW480, 72 hr. Here is the method: as §1
Assay [2] concerns SW480 cells. Briefly: Cell proliferation assay, SW480 cells. The assay is classed as cell-based, human. The settings on record: read-out: IC50 values, inhibition of growth. Here is the method:
SW480, HT-29 and HCT-15 human colon cancer cells were provided by Dr. Stan Hamilton (M. D. Anderson Cancer Center (Houston, Tex.). Panc-28 human pancreatic cancer cells and 3T3-L1 pre-adipocytes were obtained from American Type Culture Collection (Manassas, Va.). SW480, HT-29 and Panc-28 cells were maintained in Dulbecco's modified/Ham's F-12 (Sigma-Aldrich, St Louis, Mo.) with phenol red supplemented with 0.22% sodium bicarbonate, 0.011% sodium pyruvate, 5% fetal bovine serum, and 10 mL/L 100× antibiotic antimycotic solution (Sigma). HCT-15 cells were maintained in RPMI 1640 (Sigma) supplemented with 0.22% sodium bicarbonate, 0.011% sodium pyruvate, 0.45% glucose, 0.24% HEPES, 10% fetal bovine serum, and 10 mL/L of 100× antibiotic antimycotic solution (Sigma). Cells were maintained at 37° C. in the presence of 5% CO2.
This assay is performed in 12-well tissue culture plates at the concentration of 2×10^4 cells per well, using DMEM/Ham's F-12 media containing 2.5% charcoal stripped FBS. The cells were counted on the initial day using a Z1 cell counter (Beckman Coulter, Fullerton, Calif.) and then were treated either with vehicle (DMSO) or the indicated triterpenoid compounds, each sample in triplicate. Every 48 hr, fresh medium was added along with the indicated compounds. The count of the cells was taken after 2, 4 and 6 days. The results are expressed as means±S.E for each set of triplicate.

Assay [3] deals with PPARγ. As to the kind of experiment: PPARγ transactivation (PPARγ-GAL4/pGAL4, PPRE3-luc) in SW480 cells. The settings on record: for transactivation, PPARγ-GAL4/pGAL4 and PPRE3-luc: SW480, 2.5-10 μM; for effect of PPARγ antagonist T007 on induced activities: SW480, cotreatment with T007. The assay is classed as cell-based. Here is the method:
(§2) Cells were seeded onto the 12-well plates and 0.4 μg of GAL4-Luc, 0.04 μg of β-GAL, 0.04 μg of GAL4DBD-PPARγ, and 0.4 μg of p21-luc(FL) containing −2325 to +8 insert, 0.4 μg of p21-luc (−124) containing −124 to +8 insert and 0.4 μg of p21-LUC (−60) containing −60 to +8 insert were transfected using LipofectAMINE reagent (Invitrogen) following the manufacturer's protocol. Cells were treated either with vehicle or respective compounds suspended in complete medium after 6 hr of transfection. Cell lysate is extracted after 20-22 hr by adding 100 μl of 1× reporter lysis buffer per well and 30 μl of this extract is used to quantitate the luciferase activity using Lumicount (Perkin-Elmer Life and Analytical Sciences). Each experiment is done in triplicate and the results are normalized to the β-GAL activity.

The subject of assay [4] is PPARγ. As to the kind of experiment: PPARγ transactivation (PPARγ-GAL4/pGAL4, PPRE3-luc) in Panc-28 cells. The assay is classed as cell-based. How it is done: as §2
Another assay relates to HCT-15 cells. As to the kind of experiment: Caveolin-1 expression (Western blot) in HCT-15 cells. The assay is classed as cell-based, human. The conditions noted are these: HCT-15, cotreatment with T007. How it is done: as §1, with “The membrane is then washed with TBST for 10 min, incubated with chemiluminiscence reagent from Perkin Elmer for one min and then exposed to Kodak X-OMAT AR autoradiography film (Eastman Kodak, Rochester, N.Y.).” left out

Another assay relates to PPARγ-GAL4 chimera. Briefly: PPARγ-GAL4 chimera activation (FIG. 13C). The assay is classed as cell-based.

Structures are written as SMILES. Read-outs that look alike come from different tables or passages of the source.

In general, IC50 refers to the concentration that gives 50% inhibition.

With `COC(=O)C12CCC(C(C)C)C1C1CCC3C4(C)C=C(C#N)C(=O)C(C)(C)C4CCC3(C)C1(C)CC2` (centres unmarked) [CN-BA-Me, Methyl 2-cyano-lup-1-en-3-oxo-20-oate], in the assay with HT-29 cells, the “KLF4 mRNA levels” value was “induced KLF4 mRNA levels” and the “effect of T007 on induction of KLF4 mRNA” value was “did not inhibit”. In the assay on Panc-28 cells, the “effect of T007 on induction of p21 protein” value (from here on “effect … of p21 protein”) is listed as “significantly inhibited”, the “cyclin D1 expression” value was “downregulation of cyclin D1”, the p27 expression result was “induction of p27” and the p21 protein expression result was “induce p21 protein expression”. Moreover, in the assay on SW480 cells [1], the caveolin-1 induction entry is reported as “did not induce caveolin-1 expression” and the caveolin-1 protein level result was “decreased expression”. Besides, the IC50 in the assay on SW480 cells [2] is 1000 to 2500 nM. Also, in the assay on PPARγ [3], the “transactivation, PPARγ-GAL4/pGAL4 and PPRE3-luc” value is on record as “induced transactivation”; the “effect of PPARγ antagonist T007 on induced activities” value is “inhibited by T007”. Besides, the “induction, PPARγ-GAL4/pGAL4” value in the assay with PPARγ [4] (Panc-28) is “minimal induction”. Besides, the “induction, PPRE3-luc” value with PPARγ [4] (Panc-28, data not shown) is “no induction”. Also, in the assay with HCT-15 cells, the “effect of T007 on induced caveolin-1 response” value is given as “inhibition of the induced caveolin-1 response”.
With `CC(C)C1CCC2(C(=O)O)CCC3(C)C(CCC4C5(C)C=C(C#N)C(=O)C(C)(C)C5CCC43C)C12` (centres unmarked) [CN-BA], in the assay with HT-29 cells, the “KLF4 mRNA levels” value is recorded as “induced KLF4 mRNA levels” and the “effect of T007 on induction of KLF4 mRNA” value is “did not inhibit”. In addition, in the assay with Panc-28 cells, the “effect … of p21 protein” value is recorded as “significantly inhibited”, the “cyclin D1 expression” value is “downregulation of cyclin D1”, the p27 expression entry is recorded as “induction of p27” and the p21 protein expression result is “induce p21 protein expression”. In the assay with SW480 cells [1], the caveolin-1 induction entry is listed as “did not induce caveolin-1 expression” and the caveolin-1 protein level entry was “decreased expression”. The IC50 in the assay on SW480 cells [2] worked out at 1000 nM. In addition, in the assay on PPARγ [3], the “transactivation, PPARγ-GAL4/pGAL4 and PPRE3-luc” value was “induced transactivation”; the “effect of PPARγ antagonist T007 on induced activities” value is “inhibited by T007”. Also, in the assay on PPARγ [4] (Panc-28), the “luciferase activity, PPARγ-GAL4/pGAL4 and PPRE3-luc” value is “induced luciferase activity”. Also, the “effect of T007 on induced luciferase activity” value in the assay on PPARγ [4] (Panc-28, cotreatment with T007) is given as “inhibited”. In addition, the “effect of T007 on induced caveolin-1 response” value in the assay on HCT-15 cells is recorded as “inhibition of the induced caveolin-1 response”. The “activation of PPARγ-GAL4 chimera” value in the assay on PPARγ-GAL4 chimera is listed as “activates”.
On to `C=C(C)[C@@H]1CC[C@]2(C(=O)O)CC[C@]3(C)[C@H](CC[C@@H]4[C@@]5(C)CC[C@H](O)C(C)(C)[C@@H]5CC[C@]43C)[C@@H]12` [betulinic acid, Betulinic acid], for which the “effect of T007 on induction of KLF4 mRNA” value in the assay with HT-29 cells was “did not inhibit”. In addition, in the assay with Panc-28 cells, the “effect … of p21 protein” value is given as “not inhibited”. Moreover, in the assay with SW480 cells [2] (Homo sapiens), the IC50 was in the range of 1000 to 5000 nM. The “transactivation, PPARγ-GAL4/pGAL4 and PPRE3-luc” value with PPARγ [3] was “inactive”. The “luciferase activity, PPARγ-GAL4/pGAL4 and PPRE3-luc” value in the assay on PPARγ [4] (Panc-28) was “inactive”. In addition, the “activation of PPARγ-GAL4 chimera” value in the assay on PPARγ-GAL4 chimera was “inactive”.

(Values after patent US20090203661A1, “Betulinic acid, derivatives and analogs thereof and uses therefor” (priority 2006, published 2009).)
